Measured values taken from patent publication US12570612B2, “Substituted nitrogen heterocyclic compound and anesthetic effect thereof” (priority 2019, dated 2026).
Read-outs that look alike come from different tables or passages of the source.

Tests used:
Assay type in all cases: in vivo
Sprague-Dawley rats [1] = conditions: tail vein
Sprague-Dawley rats [2] = experiment: Pharmacological effect and adverse reactions under the equivalent dose (2ED50), Group D compounds; conditions: for Righting reflex duration / Sedation duration / Onset time: 2ED50, tail vein, rats, n=8; for Adverse reaction: Convulsions / Adverse reaction: Cough, broken-winded / Adverse reaction: Euphoria / Adverse reaction: Four limbs rigidity / Adverse reaction: Red urine / Adverse reaction: Slower breathing, Tetany convulsion / Adverse reaction: Systemic stiffness, Convulsions, Opisthotonus / Adverse reaction: Tongue stretching / Adverse reaction: Tremor: equivalent dose (2 × ED50), number of rats of n = 8
Description: Evaluation index: onset time: from the completion of drug injection to the disappearance of forepaw righting reflex in rats; Duration of anesthesia: the time from the disappearance of rat forepaw righting reflex to the recovery of rat forepaw righting reflex; Recovery time of anesthesia: the time from the […] to complete recovery;

Sprague-Dawley rats [3] = experiment: animal or person; conditions: rats; for ED50: LORR, up and down method, tail vein, class symbols
Description: Evaluating indicator: The end point of anesthesia: the disappearance of forepaw righting reflex (lorr) was used as the end point of anesthesia; General anesthesia effect: the disappearance of forepaw righting reflex in rats lasting for 30 seconds is taken as the index of general anesthesia effect; Anesthesia recovery index: the recovery of rat forepaw righting reflex was used as the index of anesthesia recovery.

[4] = Rattus norvegicus, read-out: ED50

Row | SMILES | Minimal lethal dose (Sprague-Dawley rats [1]) | Righting reflex duration (Sprague-Dawley rats [2]) | Sedation duration (Sprague-Dawley rats [2]) | Onset time (Sprague-Dawley rats [2]; unit s) | Adverse reaction: Convulsions (Sprague-Dawley rats [2]) | Adverse reaction: Cough, broken-winded (Sprague-Dawley rats [2]) | Adverse reaction: Euphoria (Sprague-Dawley rats [2]) | Adverse reaction: Four limbs rigidity (Sprague-Dawley rats [2]) | Adverse reaction: Red urine (Sprague-Dawley rats [2]) | Adverse reaction: Slower breathing, Tetany convulsion (Sprague-Dawley rats [2]) | Adverse reaction: Systemic stiffness, Convulsions, Opisthotonus (Sprague-Dawley rats [2]) | Adverse reaction: Tongue stretching (Sprague-Dawley rats [2]) | Adverse reaction: Tremor (Sprague-Dawley rats [2]) | ED50 (Sprague-Dawley rats [3]; [4]) | Approximate therapeutic index (Sprague-Dawley rats [3]) | Onset time (Sprague-Dawley rats [2]; unit min) | ED50 (Sprague-Dawley rats [3])
1 | CCOC(OC)(OC)C(=O)c1cncn1[C@H](C)c1ccccc1 [Compound D78] | >6.8 mg/kg | 4.02 ± 1.35 min | 7.29 ± 1.20 min | <30 s | 0 | 0 | 0 | 0 | 8 | 0 | 2 | 1 | 0 | 0.5 to 1 mg/kg | >6.2 |  | 
2 | CC(C)CCOC(=O)C(=O)c1cncn1[C@H](C)c1ccccc1 [Compound D82] | >7.8 mg/kg | 0.98 ± 0.31 min | 6.70 ± 1.46 min |  | 0 | 0 | 0 | 2 | 8 | 0 | 0 | 1 | 0 | 2 to 6 mg/kg | >6.3 | <60 s | 
3 | CCOC(OCC)C(=O)c1c(F)ncn1[C@H](C)c1ccccc1 [Compound D101] | >9.3 mg/kg | 1.80 ± 0.58 min | 7.20 ± 3.21 min | <30 s | 0 | 0 | 0 | 0 | 8 | 0 | 2 | 0 | 0 | 0.04 to 0.5 mg/kg | >10.5 |  | 
4 | COC(=O)C(=O)c1ccnn1[C@H](C)c1ccccc1 [Compound D11] | >30.2 mg/kg |  |  |  |  |  |  |  |  |  |  |  |  | > 6 mg/kg | >4.6 |  | 
5 | COC(OC)(OC)C(=O)c1cnnn1[C@H](C)c1ccccc1 [Compound D42] | >1.8 mg/kg | 1.38 ± 0.15 min | 3.83 ± 0.74 min |  | 6 | 0 | 0 | 0 | 8 | 0 | 0 | 1 | 1 | 0.04 to 0.5 mg/kg | >4.2 | <60 s | 
6 | C=CCOCC(OC)(OC)C(=O)c1cncn1[C@H](C)c1ccccc1 [Compound D75] | >11.2 mg/kg | 1.59 ± 0.67 min | 5.28 ± 0.68 min | <30 s | 0 | 0 | 0 | 0 | 8 | 0 | 0 | 0 | 0 |  | >5.4 |  | +++++ (+++++ indicates that the measured ED50 is greater than 6.00 mg/kg (excluding 6.00 mg/kg))
